Broadly, the IC50 is the concentration that gives 50% inhibition. A higher IC50 goes with weaker potency.

The results in this text go back to US12643910B2, “Substituted pyrazolo[3,4-b]pyridines as ectonucleotide pyrophosphatase/phosphodiesterase 1 (ENPP1) modulators” (SANFORD BURNHAM PREBYS MEDICAL DISCOVERY INSTITUTE, priority 2019, dated 2026).

The target in one experiment is T1, human ENPP1 (Homo sapiens, UniProt P22413).
T1 construct: made in house
T1 sequence (P22413 1-925): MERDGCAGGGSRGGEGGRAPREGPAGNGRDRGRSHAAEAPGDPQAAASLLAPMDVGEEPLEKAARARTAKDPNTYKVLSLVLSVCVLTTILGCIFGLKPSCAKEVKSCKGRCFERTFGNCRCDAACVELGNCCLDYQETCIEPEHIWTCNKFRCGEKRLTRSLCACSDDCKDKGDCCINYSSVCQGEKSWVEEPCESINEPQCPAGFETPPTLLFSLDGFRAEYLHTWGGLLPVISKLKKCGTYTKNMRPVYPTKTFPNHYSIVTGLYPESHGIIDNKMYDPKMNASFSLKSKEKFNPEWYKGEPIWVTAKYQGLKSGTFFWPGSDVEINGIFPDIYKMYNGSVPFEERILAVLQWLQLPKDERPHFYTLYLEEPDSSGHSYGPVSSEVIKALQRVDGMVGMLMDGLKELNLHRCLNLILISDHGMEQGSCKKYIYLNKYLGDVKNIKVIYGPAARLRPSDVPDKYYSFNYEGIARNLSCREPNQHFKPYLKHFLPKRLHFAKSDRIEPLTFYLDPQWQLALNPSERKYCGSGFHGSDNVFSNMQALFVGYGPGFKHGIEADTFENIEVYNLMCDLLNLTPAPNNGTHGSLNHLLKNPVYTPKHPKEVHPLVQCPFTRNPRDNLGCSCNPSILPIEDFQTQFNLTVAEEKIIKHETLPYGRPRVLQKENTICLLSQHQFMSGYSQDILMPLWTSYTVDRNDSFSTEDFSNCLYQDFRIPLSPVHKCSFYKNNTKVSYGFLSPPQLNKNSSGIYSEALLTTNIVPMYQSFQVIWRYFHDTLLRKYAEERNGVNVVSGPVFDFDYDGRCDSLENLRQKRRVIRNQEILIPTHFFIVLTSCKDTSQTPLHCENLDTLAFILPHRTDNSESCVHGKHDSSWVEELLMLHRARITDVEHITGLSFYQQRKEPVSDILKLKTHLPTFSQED
As to the kind of experiment: ENPP1 assay with ATP substrate (Transcreener AMP2/GMP2 TR-FRET). It counts as biochemical. To be noted: 1 hour at room temperature. The method, boiled down: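 Reaction ran 1 h at room temperature in pH 7.5 Tris with MgCl2, TCEP, Tween 20 and 1% DMSO. ATP was added as a 300 nM stock and enzyme as an 8.5 μM stock. After EDTA stop, AMP was read by TR-FRET tracer displacement. Percent inhibition used enzyme/no-enzyme controls; IC50 was fitted with a variable slope.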
(In general: TR-FRET usually uses a lanthanide donor and a delayed reading to cut background.)

The next experiment concerns the target T2, ENPP3 (Homo sapiens, UniProt O14638).
T2 sequence (O14638 1-875): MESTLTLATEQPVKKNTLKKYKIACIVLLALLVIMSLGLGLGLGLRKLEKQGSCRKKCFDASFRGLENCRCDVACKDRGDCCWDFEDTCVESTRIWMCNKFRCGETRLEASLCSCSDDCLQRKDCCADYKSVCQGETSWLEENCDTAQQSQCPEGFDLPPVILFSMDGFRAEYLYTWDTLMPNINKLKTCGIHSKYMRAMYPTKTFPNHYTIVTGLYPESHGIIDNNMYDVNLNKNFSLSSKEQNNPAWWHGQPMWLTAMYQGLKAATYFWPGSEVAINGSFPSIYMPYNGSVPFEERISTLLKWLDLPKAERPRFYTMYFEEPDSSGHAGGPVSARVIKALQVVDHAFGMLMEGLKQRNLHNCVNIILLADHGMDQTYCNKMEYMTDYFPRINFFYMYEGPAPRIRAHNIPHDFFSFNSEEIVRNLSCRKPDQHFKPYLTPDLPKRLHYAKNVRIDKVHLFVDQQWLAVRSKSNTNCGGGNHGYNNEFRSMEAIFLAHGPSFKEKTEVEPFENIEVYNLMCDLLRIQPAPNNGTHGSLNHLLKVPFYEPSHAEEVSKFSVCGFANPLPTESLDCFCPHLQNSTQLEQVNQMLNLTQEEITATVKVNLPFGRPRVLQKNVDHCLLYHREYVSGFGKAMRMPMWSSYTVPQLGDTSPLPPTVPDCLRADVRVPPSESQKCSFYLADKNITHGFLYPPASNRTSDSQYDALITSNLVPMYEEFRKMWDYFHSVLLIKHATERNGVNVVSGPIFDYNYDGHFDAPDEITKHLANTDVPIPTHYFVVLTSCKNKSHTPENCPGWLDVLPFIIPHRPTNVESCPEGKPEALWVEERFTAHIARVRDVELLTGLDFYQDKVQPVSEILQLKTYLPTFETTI
As to the kind of experiment: ENPP3 Km ATP assay. The format is biochemical. As to conditions: ATP at Km.

Molecules are shown by their SMILES.

Take `CCN(CC)c1cc(NCc2ccc(S(N)(=O)=O)cc2)c2cnn(C)c2n1` [Example 2.79, 4-(((6-(Diethylamino)-1-methyl-1H-pyrazolo[3,4-b]pyridin-4-yl)amino)methyl)-benzenesulfonamide]: the 50% inhibitory concentration (IC50) against human ENPP1 was > 20 µM; at ENPP3 it was 1 to 20 µM.
For `CNc1nc(NCc2ccc(S(N)(=O)=O)cc2)c2cnn(C)c2n1` [Example 2.27, 4-(((1-Methyl-6-(methylamino)-1H-pyrazolo[3,4-d]pyrimidin-4-yl)amino)methyl)-benzenesulfonamide] the same measures were < 0.1 µM and 0.1 to 1 µM.
For `CN1CCC(n2ncc3c(NCc4ccc(S(N)(=O)=O)cc4)ncnc32)CC1` [Example 2.43, 4-(((1-(1-Methylpiperidin-4-yl)-1H-pyrazolo[3,4-d]pyrimidin-4-yl)amino)methyl)-benzenesulfonamide] the same measures were > 20 µM and 1 to 20 µM.
For `Cn1ncc2c(NCc3ccc(S(N)(=O)=O)cc3)nccc21` [Example 2.66, 4-(((1-Methyl-1H-pyrazolo[4,3-c]pyridin-4-yl)amino)methyl)benzenesulfonamide], the IC50 against human ENPP1 and against ENPP3 was 1 to 20 µM each time.
Regarding `Fc1ccccc1CNc1nc(-c2ccccn2)nc2scc(-c3ccccc3)c12` [Example 1.8, (2-Fluoro-benzyl)-(5-phenyl-2-pyridin-2-yl-thieno[2,3-d]pyrimidin-4-yl)-amine], the half-inhibitory concentration (IC50) against human ENPP1 and at ENPP3 was > 20 µM in each case.
In the case of `Cn1ncc2c(NCc3ccc(S(N)(=O)=O)cc3)cc(Cl)nc21` [Example 2.73, 4-(((6-Chloro-1-methyl-1H-pyrazolo[3,4-b]pyridin-4-yl)amino)methyl)benzenesulfonamide], the half-inhibitory concentration (IC50) at human ENPP1 and against ENPP3 was < 0.1 µM throughout.
As for `NS(=O)(=O)c1ccc(CNc2nc(-c3cccnc3)nc3scc(-c4ccccc4)c23)s1` [Example 1.30, 5-(((5-Phenyl-2-(pyridin-3-yl)thieno[2,3-d]pyrimidin-4-yl)amino)methyl)thiophene-2-sulfonamide], the IC50 is 1 to 20 µM at human ENPP1 and > 20 µM on ENPP3.
For the compound `Cn1ncc2c(NCc3ccc(S(N)(=O)=O)cc3)cc(N)nc21` [Example 2.78, 4-(((6-Amino-1-methyl-1H-pyrazolo[3,4-b]pyridin-4-yl)amino)methyl)-benzenesulfonamide], the IC50 against human ENPP1 and against ENPP3 was 0.1 to 1 µM each time.
In the case of `Cn1ncc2c(NCc3ccc(S(N)(=O)=O)cc3)nc(N3CCCCC3)nc21` [Example 2.14, 4-(((1-Methyl-6-(piperidin-1-yl)-1H-pyrazolo[3,4-d]pyrimidin-4-yl)amino)methyl)-benzenesulfonamide], the IC50 fell in the range of 1 to 20 µM at human ENPP1 and 0.1 to 1 µM at ENPP3.
For `COc1cc(CNc2ccnc3c2cnn3C)ccc1S(N)(=O)=O` [Example 2.65, 2-Methoxy-4-(((1-methyl-1H-pyrazolo[3,4-b]pyridin-4-yl)amino)methyl)-benzenesulfonamide], in that order: 1 to 20 µM and > 20 µM.
With `COc1nc(NCc2ccc(S(N)(=O)=O)cc2)c2c(Br)nn(C)c2n1` [Example 2.96, 4-((3-Bromo-6-methoxy-1-methyl-1H-pyrazolo[3,4-d]pyrimidin-4-yl)aminomethyl)-benzenesulfonamide], the IC50 on human ENPP1 and at ENPP3 was < 0.1 µM in each case.
In the case of `Cn1ncc2c(NCc3ccc(S(N)(=O)=O)cc3Cl)ccnc21` [Example 2.61, 3-Chloro-4-(((1-methyl-1H-pyrazolo[3,4-b]pyridin-4-yl)amino)methyl)benzenesulfonamide], the half-maximal inhibitory concentration (IC50) against human ENPP1 and against ENPP3 was 0.1 to 1 µM in each case.
As to `Cn1nc(-c2ccccc2)c2c(NCc3ccc(S(N)(=O)=O)cc3)ncnc21` [Example 2.44, 4-(((1-Methyl-3-phenyl-1H-pyrazolo[3,4-d]pyrimidin-4-yl)amino)methyl)-benzenesulfonamide], the IC50 at human ENPP1 and at ENPP3 was < 0.1 µM in each case.
As for `COc1nc(NCc2ccc(S(N)(=O)=O)s2)c2cnn(C)c2n1` [Example 2.95, 5-((6-Methoxy-1-methyl-1H-pyrazolo[3,4-d]pyrimidin-4-yl)aminomethyl)thiophene-2-sulfonamide], the 50% inhibitory concentration (IC50) at human ENPP1 and on ENPP3 was 0.1 to 1 µM in each case.
Turning to `Cc1nc(NCc2ccc(S(N)(=O)=O)cc2)c2c(C3=CCCC3)nn(C)c2n1` [Example 2.127, 4-((3-(1-Cyclopenten-1-yl)-1,6-dimethyl-1H-pyrazolo[3,4-d]pyrimidin-4-yl)aminomethyl)benzenesulfonamide], the half-maximal inhibitory concentration (IC50) on human ENPP1 was 1 to 20 µM; against ENPP3, 0.1 to 1 µM.
For `Cn1ncc2c(NCc3ccc(S(N)(=O)=O)cc3)cc(N3CCOCC3)nc21` [Example 2.82, 4-(((1-Methyl-6-morpholino-1H-pyrazolo[3,4-b]pyridin-4-yl)amino)methyl)-benzenesulfonamide], in that order: 1 to 20 µM and 1 to 20 µM.
For `Cc1csc2c(N3CCC(NC(=O)CCc4ccnc(F)c4)CC3)ncnc12` [Example 3.36, 3-(2-Fluoropyridin-4-yl)-N-(1-(7-methylthieno[3,2-d]pyrimidin-4-yl)piperidin-4-yl)propanamide], in that order: 1 to 20 µM and > 20 µM.
For `Cn1ncc2c(N3CCC(NCCCc4ccncc4)CC3)ncnc21` [Example 2.5, 1-(1-Methyl-1H-pyrazolo[3,4-d]pyrimidin-4-yl)-N-(3-(pyridin-4-yl)propyl)piperidin-4-amine] the same measures were > 20 µM and > 20 µM.
Consider `Cn1ncc2c(NCc3ccc(S(N)(=O)=O)cc3Cl)ncnc21` [Example 2.47, 3-Chloro-4-(((1-methyl-1H-pyrazolo[3,4-d]pyrimidin-4-yl)amino)methyl)-benzenesulfonamide], for which the half-inhibitory concentration (IC50) at human ENPP1 is 0.1 to 1 µM; against ENPP3, 1 to 20 µM.
For `Cc1cnccc1CCCNC1CCN(c2ncnc3c(C)csc23)CC1` [Example 3.35, N-(3-(3-Methylpyridin-4-yl)propyl)-1-(7-methylthieno[3,2-d]pyrimidin-4-yl)piperidin-4-amine] the same measures were 0.1 to 1 µM and > 20 µM.
For `Cc1cc(CNc2ncnc3c2cnn3C)ccc1S(N)(=O)=O` [Example 2.46, 2-Methyl-4-(((1-methyl-1H-pyrazolo[3,4-d]pyrimidin-4-yl)amino)methyl)-benzenesulfonamide] the same measures were 1 to 20 µM and 1 to 20 µM.
In the case of `O=C(CCc1ccc(F)cc1)NC1CCN(c2ncnc3ccsc23)CC1` [Example 3.46, 3-(4-Fluorophenyl)-N-(1-(thieno[3,2-d]pyrimidin-4-yl)piperidin-4-yl)propanamide], the 50% inhibitory concentration (IC50) at human ENPP1 and on ENPP3 was > 20 µM throughout.
For `Cn1ncc2c(NCc3ccc(S(N)(=O)=O)cn3)ccnc21` [Example 2.71, 6-(((1-Methyl-1H-pyrazolo[3,4-b]pyridin-4-yl)amino)methyl)pyridine-3-sulfonamide], the half-maximal inhibitory concentration (IC50) on human ENPP1 is < 0.1 µM; against ENPP3, 0.1 to 1 µM.
For `Cc1ccccc1CCC(=O)NC1CCN(c2ncnc3c(C)csc23)CC1` [Example 3.14, N-(1-(7-Methylthieno[3,2-d]pyrimidin-4-yl)piperidin-4-yl)-3-(o-tolyl)propanamide] the same measures were > 20 µM and > 20 µM.
